Experimental data as given in the Bradley open melting point set (2014).
“And” between values parts separate entries of the source, which are not always exact repeats. Identical values can stand only once.

Row | melting point | Structure (SMILES)
1 | 148 °C | O=C(O)c1cnccc1C(F)(F)F [4-(trifluoromethyl)nicotinic acid]
2 | -100 °C | CC(=O)OCCC(C)C [3-Methylbutyl acetate]
3 | 100 °C | N#Cc1ccc(Cl)c([N+](=O)[O-])c1 [4-chloro-3-nitrobenzonitrile]
4 | 199 °C | Cc1ccc(C(=O)O)cc1Cl [3-chloro-4-methylbenzoic acid]
5 | 75 °C | COC(=O)C1=Nc2ccccc2C1(C)C [methyl 3,3-dimethyl-3H-indole-2-carboxylate]
6 | 40 °C | CCCCCCCCCCCCCCCCCC(=O)OC [methyl stearate]
7 | -76 °C | CCCCCCCC(C)CC (stereo not given) [3-methyldecane]
8 | -7.5 °C | Nc1ccc(F)cc1F [2,4-Difluoroaniline]
9 | 160 °C | O=C(O)CC(CC(=O)O)C(=O)O [tricarballylic acid]
10 | 40 °C | OC1CCOc2ccccc21 (stereo not given) [4-chromanol]
11 | 36 °C | Fc1cc(I)ccc1Br [1-bromo-2-fluoro-4-iodobenzene]
12 | 74 °C | CC(C)(C)c1ccc(C(C)(C)C)cc1 [p-di-tert-butylbenzene]
13 | 237 °C | C=C1C(=O)C23C(OC(C)=O)CC4C(C)(C)CCC(OC(C)=O)C4(C)C2C(OC(C)=O)CC1C3OC(C)=O (stereo not given) [15-oxokaur-16-ene-1,7,11,14-tetrayl tetraacetate]
14 | 345 °C | O=C(O)c1cc(=O)[nH]c(=O)[nH]1 [orotic acid]
15 | 130 °C | Clc1cccc(Cl)c1N=C1NCCN1 [Clonidine]
16 | 252 °C | O=c1ncnc2n(C3CCCCC3)[nH]cc1-2 [1-cyclohexyl-1,2-dihydro-4H-pyrazolo[3,4-d]pyrimidin-4-one]
17 | 57 °C | O=C(c1ccccc1)c1cccs1 [Phenyl(2-thienyl)methanone]
18 | -20 °C | CCOC(=O)CCC(=O)OCC [diethyl_succinate]
19 | 136 °C | CC(O[S+]([O-])C(C)(C)C)C(O)(c1ccccc1)c1ccccc1 (stereo not given)
20 | 98 °C | CC(=O)OCC1OC(OCc2ccccc2)C(OC(C)=O)C(OC(C)=O)C1OC(C)=O (stereo not given)
21 | 137 °C | COc1ccc2c(c1)C(O)OC2=O (stereo not given) [3-hydroxy-5-methoxy-2-benzofuran-1(3H)-one]
22 | 133 °C | COc1cc(C=O)c([N+](=O)[O-])cc1OC [6-nitroveratraldehyde]
23 | 120 °C | CC(C)(C)NCC(O)c1cc(O)cc(O)c1 (stereo not given) [Terbutaline]
24 | 104 °C | Oc1cccc2ccc3cccnc3c12 [10-hydroxybenzo[h]quinoline]
25 | 99 °C | Cn1ncc(Br)c1N [5-amino-4-bromo-1-methyl-1h-pyrazole]
26 | 156 °C | O=C(O)CSCC(=O)NC1CCSC1=O (stereo not given) [erdosteine]
27 | 92 °C | Oc1ccc(OCc2ccccc2)nc1 [2-benzyloxy-5-hydroxypyridine]

Row | melting point | Structure (SMILES)
28 | 11 °C | NCCO [2-Aminoethanol]
29 | 281 °C | O=C1c2ccccc2C(=O)c2c1ccc(O)c2O [1,2-Dihydroxy-9,10-anthraquinone]
30 | 212 °C | Nc1ccn([C@@H]2O[C@H](CO)[C@@H](O)[C@@H]2O)c(=O)n1 [Cytarabine]
31 | 212 °C | Fc1ccc(/C=N/n2c(S)nnc2C(F)(F)F)cc1
32 | 157 °C | O=C(O)Cc1ccccc1Nc1c(Cl)cccc1Cl [diclofenac]
33 | 326 °C | CC[C@H](C)C(=O)O[C@H]1C[C@H](O)C=C2C=C[C@H](C)[C@H](CC[C@@H](O)C[C@@H](O)CC(=O)O)[C@H]21 [Pravastatin]
34 | 87 °C | N#CCc1cccc(C#N)c1 [m-cyano_phenylacetonitrile]
35 | 167 °C | OC[C@@H](O)[C@@H](O)[C@H](O)[C@H](O)CO [D-Mannitol]
36 | 14 °C | CCOc1ccc(C=O)cc1 [4-ethoxybenzaldehyde]
37 | 67 °C | CCCCP(=O)(CCCC)CCCC [tri-n-butylphosphine oxide]
38 | 66 °C | O=S(=O)(Cl)c1ccc2c(c1)OCCO2 [1,4-benzodioxane-6-sulfonyl chloride]
39 | 151 °C | O[C@H]1O[C@H](COCc2ccccc2)[C@@H](OCc2ccccc2)[C@H](OCc2ccccc2)[C@H]1OCc1ccccc1 [2,3,4,6-tetra-o-benzyl-alpha-D-glucopyranose]
40 | 199 °C | O=C2c1ccccc1S(=O)(=O)N(C)C/2=C(O)Nc3ccccn3 [Piroxicam]
41 | -110 °C | O=S(F)F [Thionyl difluoride]
42 | 202 °C | COc1ccc2oc(-c3cc(OC)c(OC)cc3OC)c(O)c(=O)c2c1 [3-hydroxy-2',4',5',6-tetramethoxyflavone]
43 | 18 °C | CS(C)=O [dimethyl_sulfoxide]
44 | 54 °C | Nc1ccc(C2CCCCC2)cc1 [4-cyclohexylaniline]
45 | 89 °C | CC(C)C(C(=O)O)C(=O)O [isopropylmalonic acid]
46 | 194 °C | Cc1cc(C)c(NC(=O)CN(CC(=O)O)CC(=O)O)c(C)c1Br
47 | 80 °C | O=C(O)CO [Glycol acid]
48 | 50 °C | CCOC=C(C#N)C(=O)OCC [ethyl (ethoxymethylene)cyanoacetate]
49 | -35 °C | CCCCCC(C)=O [2-heptanone]
50 | 83 °C | O=C(O)C(O)c1ccccc1Cl (stereo not given) [2-chloromandelic acid]
51 | 9 °C | CCCCCCCCCCCCCCc1ccccc1 [N-tetradecylbenzene]
52 | 140 °C | Cc1ncc([N+](=O)[O-])n1C [dimetridazole]
53 | 224 °C | Oc1ccc2cc(O)ccc2c1 [2,6-dihydroxynaphthalene]
54 | 31 °C | CCCCCCCc1ccc(-c2ccc(C#N)cc2)cc1 [4-cyano-4'-n-heptylbiphenyl]

Row | melting point | Structure (SMILES)
55 | 80 °C | O=C1CCC(c2ccccc2)CC1 [4-phenylcyclohexanone]
56 | 102 °C | COc1cc[n+]([O-])cc1 [4-methoxypyridine n-oxide]
57 | 32 °C | O=C(O)C1=CCCCC1 [1-cyclohexene-1-carboxylic acid]
58 | 91 °C | Cn1c2ccccc2c2ccccc21 [9-Methyl-9H-carbazole]
59 | 260 °C | CC(=O)Nc1ccc(C(=O)O)cc1 [4-acetamidobenzoic acid]
60 | 256 °C | c1ccc(C2=C(c3ccccc3)C(c3ccccc3)C(c3ccccc3)=C2c2ccccc2)cc1 [pentaphenylcyclopentadiene]
61 | 36 °C | N#Cc1ccc(F)cc1 [4-fluorobenzonitrile]
62 | 100 °C | CCC(=O)c1ccc(OCc2ccccc2)cc1 [4'-benzyloxypropiophenone]
63 | 177 °C | O=C1CSc2ccccc2N1 [(2h)1,4-benzothiazin-3(4h)-one]
64 | 94 °C | c1ccc(C(c2ccccc2)c2ccccc2)cc1 [triphenylmethane]
65 | 52 °C | COc1ccc2c(c1)CC2=O [3-methoxybicyclo[4.2.0]octa-1,3,5-trien-7-one]
66 | 145 °C | CC(C)CCCC(C)C1CCC2C3CC=C4CC(OCOc5ccc(Cl)cc5)CCC4(C)C3CCC12C (stereo not given) [3-[(4-chlorophenoxy)methoxy]cholest-5-ene]
67 | 255 °C | [2H]c1c([2H])c([2H])c2c(c1[2H])c([2H])c([2H])c1c3c([2H])c([2H])c([2H])c([2H])c3c([2H])c([2H])c21 [(~2~H_12_)Chrysene]
68 | -78 °C | C#CC(C)(C)C [3,3-Dimethylbut-1-yne]
69 | 160 °C | Cc1ncc([N+](=O)[O-])n1CCO [metronidazole]
70 | 211 °C | COc1cc(C(=O)NN)ccc1O [vanillic acid hydrazide]
71 | -142 °C | CC1CCCC1 [methylcyclopentane]
72 | 65 °C (2×) and 64 °C | Clc1cc(Cl)cc(Cl)c1 [1,3,5-trichlorobenzene]
73 | -22 °C | CCCCOC(=O)c1ccccc1 [N-butyl benzoate]
74 | 188 °C | Nc1ccc(C(=O)O)cc1 [4-aminobenzoic acid]
75 | 73 °C | Cc1cccc(C(=O)CC#N)c1 [m-toluoylacetonitrile]
76 | 166 °C | O=C(O)c1cc([N+](=O)[O-])ccc1Cl [2-chloro-5-nitrobenzoic acid]
77 | -95 °C | ClCCl [dichloromethane]
78 | 119 °C | O=C(N[C@@H](CO)C(=O)O)OCc1ccccc1 [N-benzyloxycarbonyl-l-serine]
79 | 138 °C | OB(O)c1ccc(Cl)s1 [5-chlorothiophene-2-boronic acid]
80 | 233 °C | Nc1ncc(Br)cn1 [2-amino-5-bromopyrimidine]

Row | Structure (SMILES) | melting point
81 | c1ccc2cc3cc4ccccc4cc3cc2c1 [2,3-benzanthracene] | 341 °C
82 | CCOP(=S)(OCC)Oc1nc(Cl)n(C(C)C)n1 [isazophos] | 25 °C
83 | Clc1ccccc1 [chlorobenzene] | -45 °C
84 | CCC1(O)CCC2(C)C(CCC3C4CCC(=O)C4(C)CCC32)C1 (stereo not given) [3-ethyl-3-hydroxyandrostan-17-one] | 115 °C
85 | COCC(=O)N(c1c(C)cccc1C)C(C)C(=O)OC (stereo not given) [Metalaxyl] | 72 °C
86 | CCNc1nc(NC(C)(C)C)nc(SC)n1 [terbutryn] | 105 °C
87 | [O-][I+2]([O-])O [Iodic acid] | 110 °C
88 | O=C1CCCN1 [2-pyrrolidinone] | 24 °C
89 | CN(C)C(=O)Nc1ccc(Cl)cc1 [Monuron] | 174 °C
90 | Cc1ccccc1CCl [2-methylbenzyl chloride] | 2 °C
91 | CCC#N [Propiononitrile] | -92 °C
92 | Fc1ccc(C2(Cn3cncn3)OC2c2ccccc2Cl)cc1 (stereo not given) | 125 °C
93 | [2H]C([2H])([2H])C(=O)C([2H])([2H])[2H] [(~2~H_6_)Propan-2-one] | -93 °C
94 | N(=N/c1ccccc1)c2ccccc2 [azobenzene] | 69 °C
95 | CCC(C)(C)c1ccc(O)cc1 [4-tert-pentylphenol] | 89 °C
96 | N#Cc1c(Cl)cccc1Cl [2,6-dichlorobenzonitrile] | 145 °C
97 | ClCC(Cl)CCl [1,2,3-trichloropropane] | -14 °C
98 | CCN=C=S [ethyl isothiocyanate] | -6 °C
99 | COC(CN1CCN(CC(O)C(OC)c2ccccc2)CC1)c1ccccc1 (stereo not given) [zipeprol] | 83 °C
100 | COc1ccccc1N1CCNCC1 [1-(2-methoxyphenyl)piperazine] | 37 °C
